System: collagenase produced by Clostridium Histolyticum
Test: Inhibition of collagenase activity (DQ-gelatin fluorescence)
Format: biochemical
Conditions: decrease in collagenase activity relative to the control
Method: The effect of an extract of wild yam on the inhibition of the activity of collagenase produced by Clostridium Histolyticum was evaluated. Although different from a human enzyme, this collagenase is used on account of its ability to digest human collagen. […]
The control consisted of collagenase without test product. Thus, the activity of the control constitutes 100% collagenase activity and thus 0% inhibition of the said activity.
The products were preincubated with the enzyme for 10 minutes at room temperature, and DQ-gelatin was then added and the fluorescence obtained on degradation of the substrate was recorded for 10 minutes (excitation 480 nm; emission 538 nm) on a SpectraMax spectrofluorimetre (Molecular Devices); the results were processed using Soft Max Pro software.
The percentages indicated represent the decrease in collagenase activity relative to the control.

## c1cnc2c(c1)ccc1cccnc12 [Phenanthroline, phenanthroline]
0.1 mM in ethanol
  % inhibition (n = 4): 96%
0.25 mM in ethanol
  % inhibition (n = 4): 40%
0.5 mM in ethanol
  % inhibition (n = 4): 65%

Source: US20030152597A1, “Use of at least one sapogenin for prevening the skin or ageing symptoms” (priority 2000, published 2003)
